Holding throughout (assay type): functional, organism-based
In one test the test system is Sinorhizobium meliloti. The experiment in a line: Antibacterial activity against Rhizobium meliloti.
For test [1], the system named is Plectosphaerella cucumerina. The test is described as follows: Antifungal activity against Plectosphaerella cucumerina.
The test system of the next test is Botrytis cinerea. The test is described as follows: Antifungal activity against Botrytis cinerea.
In test [2] the test system is Clavibacter michiganensis. The test is described as follows: Antibacterial activity against Clavibacter michiganensis.
Another test concerns Xanthomonas campestris. The test is described as follows: Antibacterial activity against Xanthomonas campestris.

Non-standard residues stand in square brackets, D forms with d. Residues, ends and D or L forms follow the SMILES beside them. GABA = NCCCC(=O)O Where only a bound is given, the exact number is not on record here.

Take “H-THRTRPALAARGASNCYSTYRASNVALCYSARGLEPRARGGLIIECYSALALYSLYSCYS-OH (cysteines drawn unpaired)”: the EC50 – broadly, the concentration that produces a half-maximal response – turned out to be 2.07 µM in the test with Sinorhizobium meliloti; 0.16 µM in test [1]; 0.08 µM in the test with Botrytis cinerea; 0.03 µM in test [2]; 1.03 µM in the test on Xanthomonas campestris.

As for `CC(C)C[C@H](NC(=O)[C@H](CCCN=C(N)N)NC(=O)CCCNC(=O)[C@@H](NC(=O)[C@H](CC(N)=O)NC(=O)[C@H](Cc1ccc(O)cc1)NC(=O)CCCNC(=O)[C@H](CC(N)=O)NC(=O)[C@H](CCCN=C(N)N)NC(=O)[C@H](C)NC(=O)[C@H](Cc1c[nH]c2ccccc12)NC(=O)[C@@H](N)[C@@H](C)O)C(C)C)C(=O)N1CCC[C@H]1C(=O)O` (H-TWARN[GABA]YNV[GABA]RLP-OH), the EC50 was greater than 50 µM in the test on Sinorhizobium meliloti; 3.97 µM in test [1]; 1.6 µM with Botrytis cinerea; 3.27 µM in test [2]; greater than 50 µM in the test with Xanthomonas campestris.

Take `CC[C@H](C)[C@H](NC(=O)[C@H](CCC(=O)O)NC(=O)[C@@H](N)CCCN=C(N)N)C(=O)NCCCC(=O)N[C@@H](C)C(=O)N[C@@H](CCCCN)C(=O)N[C@@H](CCCCN)C(=O)NCCCC(=O)N[C@@H](CCCN=C(N)N)C(=O)O` (H-REI[GABA]AKK[GABA]R-OH): the EC50 is greater than 50 µM in the test with Sinorhizobium meliloti; 15.7 µM in test [1]; 4.1 µM in the test with Botrytis cinerea; 5.13 µM in test [2]; greater than 50 µM in the test on Xanthomonas campestris.

For the origin of these results see ChEMBL document CHEMBL1148607, “A minimalist design approach to antimicrobial agents based on a thionin template” (J Med Chem, 2006).
